Ends that are not written are not given here.
What was measured:
[1] = system: YB-1 binding to the EGFR promoter; conditions: previous work; cited from earlier work
Method: After 72 h, the CPP reduced HER-2 and EGFR protein levels in AU565 cells (Figure 3A). […] Further, in SUM149 cells, EGFR protein and mRNA levels were decreased (Figure 3C-D).

[2] = system: YB-1 binding to the EGFR promoter; test: Electrophoretic mobility shift assay (gel shift), SUM149 nuclear extracts; type: biochemical, human; conditions: SUM149 nuclear protein 5 µg pre-incubated 20 min with 25 µM peptide, EGFR2a oligonucleotides
Method: The gel shift assay was performed using EGFR2a oligonucleotides as previously described. Briefly, SUM149 cells were harvested and cytoplasmic/nuclear fractions were obtained using the NE-PER kit followed by EMSA using the Lightshift Chemiluminescent EMSA kit (both kits from Pierce Biotechnology, Rockford, IL). Nuclear extracts were confirmed to contain RSK and YB-1 by immunoblotting. Nuclear protein (5 µg) was pre-incubated for 20 min with unlabeled oligonucleotide plus acetic acid control, scrambled peptide (25 µM), or CPP (25 µM or 50 µM) prior to the addition of biotin-labeled oligonucleotide. Chicken anti-YB-1 (1 µg) was used as positive control. Reactions were run on a non-denaturing polyacrylamide gel, transferred to a nylon membrane, cross-linked at 120 mJ/cm^2 using a Stratalinker (Stratagene, La Jolla, CA) and visualized with chemiluminescence (Pierce Biotechnology).

[3] = system: SUM149 cells; test: Monolayer growth assay, SUM149; type: cell-based, human; conditions: SUM149, 72 h, 0–50 µM scrambled peptide, MTS
Method: (§3) For monolayer assays, cells were plated at 5000 cells per well in a 96 well plate. The following day cells were treated with diluent, 0–50 µM of scrambled peptide, or 0–50 µM CPP. The BT474, BT474-m1, HR5 and HR6 cells were also tested in combination with trastuzumab (BC Cancer Agency pharmacy, Vancouver, BC) at 20 µg/mL. […] Growth was shown as a percentage of diluent control and changes in growth were considered significant at P<0.01.

[4] = system: 184htert cells; test: Monolayer growth assay, normal immortalized mammary epithelial cells; type: cell-based, human; conditions: 72 h, MTS proliferation assay, 0–50 µM
Method: For monolayer assays, cells were plated at 5000 cells per well in a 96 well plate. The following day cells were treated with diluent, 0–50 µM of scrambled peptide, or 0–50 µM CPP. […] Growth was shown as a percentage of diluent control and changes in growth were considered significant at P<0.01.

[5] = system: EpCAM^+ primary normal human breast epithelial cells; test: Normal mammary epithelial cells assay, MTS growth; type: cell-based; conditions: cells from reduction mammoplasties of two patients, 6 or 25 µM, 72 h
[6] = system: EpCAM^+ primary normal human breast epithelial cells; test: Normal mammary epithelial cells assay, colony-forming cell (CFC) assay; type: cell-based; conditions: cells from two patients, 6 or 25 µM for 48 hours, colonies counted 7 days post-seeding
Method: EpCAM^+ primary normal human breast epithelial cells from two patients were obtained, prepared, and isolated as previously described, [36]. In all subsequent experiments, the primary epithelial cells were grown in Epicult-B media (StemCell Technologies, Vancouver, BC) supplemented with 5% fetal calf serum. For the colony-forming cell (CFC) assay, EpCAM^+ cells from each patient were first seeded at 7000 cells/well into a 96 well plate and treated the following day with either diluent, scrambled peptide (6 or 25 µM), or CPP (6 or 25 µM) in triplicate wells for 48 hours. Following this peptide incubation, cells were harvested with trypsin, a single cell suspension was generated, and cells were seeded into the CFC assay as previously described, [37]. Colonies were counted 7 days post-seeding.

[7] = system: P-YB-1^S102; test: Immunoblotting of P-YB-1^S102 in SUM149 cells; type: cell-based, human
Method: (§1) Cell lines used herein were evaluated for YB-1, the activating kinases RSK and AKT, and the downstream targets EGFR and HER-2. […] Proteins were extracted using ELB plus protease and phosphatase inhibitors and western blotting was performed as previously described. The following antibodies were used to detect proteins by immunoblotting (unless otherwise indicated, all antibodies were from Cell Signaling Technology, Danvers, MA): P-YB-1^S102 (1/500), YB-1 (1/2000, Abcam, Cambridge, MA), EGFR (1/5000, Stressgen, San Diego, CA), P-p90RSK^S380 (1/500), RSK1/RSK2/RSK3 (1/1000), HER-2 (1/1000, Abcam), AKT (1/1000), creb (1/1000), pan-actin (1/1000), vinculin (1/1000). Blots were quantified using ImageJ software.

[8] = system: P-YB-1^S102; test: Immunoblotting of P-YB-1^S102 in AU565 cells; type: cell-based, human; conditions: 12.5–50 µM CPP, 72 h, western blot
Method: as §1

[9] = system: P-YB-1^S102; test: Immunoblotting of P-YB-1^S102 in LNCap cells; type: cell-based, human; conditions: 12.5–50 µM CPP, 72 h, western blot
Method: as §1

[10] = system: HER-2; test: Immunoblotting of HER-2 protein in AU565 cells; type: cell-based, human; conditions: 72 h, western blot
Method: as §1

[11] = system: EGFR; test: Immunoblotting of EGFR protein in AU565 cells; type: cell-based, human; conditions: 72 h, western blot
Method: as §1

[12] = system: EGFR; test: Immunoblotting of EGFR protein in SUM149 cells; type: cell-based, human; conditions: 72 h, western blot
Method: as §1

[13] = system: HER-2; test: Real-time quantitative RT-PCR of HER-2 transcript in AU565 cells; type: cell-based, human; conditions: 50 µM CPP, 24 h, qRT-PCR, 18S housekeeping
Method: (§2) RNA was isolated from log growing AU565 and SUM149 cells treated with 50 µM scrambled CPP or 50 µM CPP for 24 h using the RNeasy Mini kit from Qiagen (Mississauga, ON). The RNA was reverse transcribed and amplified using HER-2 (for AU565 cells) or EGFR (for SUM149 and AU565 cells) specific primers and probes (Applied Biosystems, Foster City, CA). 18S mRNA was quantified as a housekeeping gene (Applied Biosystems).

[14] = system: EGFR; test: Real-time quantitative RT-PCR of EGFR transcript in AU565 cells; type: cell-based, human; conditions: 50 µM CPP, 24 h, qRT-PCR, 18S housekeeping
Method: as §2

[15] = system: EGFR; test: Real-time quantitative RT-PCR of EGFR transcript in SUM149 cells; type: cell-based, human; conditions: 50 µM CPP, 24 h, qRT-PCR
Method: as §2

[16] = system: BT474 cells; test: Monolayer growth assay, BT474, with or without trastuzumab; type: cell-based, human; conditions: 72 h, MTS
Method: as §3

[17] = system: BT474-m1 cells; test: Monolayer growth assay, BT474-m1, with or without trastuzumab; type: cell-based, human; conditions: 72 h, MTS
Method: as §3

[18] = system: HR5 cells; test: Monolayer growth assay, HR5 (trastuzumab resistant), with or without trastuzumab; type: cell-based, human; conditions: 72 h, MTS
Method: as §3

[19] = system: HR6 cells; test: Monolayer growth assay, HR6 (trastuzumab resistant), with or without trastuzumab; type: cell-based, human; conditions: 72 h, MTS
Method: as §3

## COc1cccc(-c2cc(=O)c3ccccc3o2)c1N [PD098059]
[1]
  YB-1 binding to the EGFR promoter: reverse YB-1 binding

## CC(=O)O[C@@H]1[C@@H](OC(C)=O)[C@@H](O)[C@H](Oc2c(-c3ccc(O)cc3)oc3cc(O)cc(O)c3c2=O)O[C@H]1C [SL0101]
[1]
  YB-1 binding to the EGFR promoter: reverse YB-1 binding

## RALKYGVRP [scrambled peptide]
[2]
  YB-1 binding to the EGFR promoter (gel shift): bound with high affinity
[3]
  effect on growth: no effect
[4]
  growth of normal human mammary epithelial cells: neither the scrambled control peptide nor the CPP inhibited growth
[5]
  growth of normal breast epithelial cells (MTS): neither the scrambled peptide nor the CPP had any growth effect
[6]
  growth of normal breast epithelial cells (CFC output): neither the scrambled peptide nor the CPP had any growth effect

## RQIKIWFQNRRMKWKKPRKYLRSVG-OH [CPP]
[7]; 12.5–50 µM CPP, 72 h, western blot
  phosphorylation of YB-1^S102: decreased phosphorylation
[7]; 1 h, western blot quantified using ImageJ, relative P-YB-1:YB-1
  decrease of P-YB-1^S102: 32%
[8]
  phosphorylation of YB-1^S102: decreased phosphorylation
[9]
  phosphorylation of YB-1^S102: decreased phosphorylation
[10]
  HER-2 protein level: reduced
[11]
  EGFR protein level: reduced
[12]
  EGFR protein level: decreased
[13]
  reduction of HER-2 transcript level: ~50%
[14]
  reduction of EGFR transcript level: ~50%
[15]
  EGFR mRNA level: decreased
[2]
  YB-1 binding to the EGFR promoter (gel shift): blocked binding
[16]; BT474, CPP 12.5 or 50 µM with trastuzumab 20 µg/ml
  sensitivity to trastuzumab: increased the sensitivity
[16]; BT474, CPP 12.5 or 50 µM
  growth, CPP alone: suppressed the growth
[17]; BT474-m1, CPP 12.5 or 50 µM with trastuzumab 20 µg/ml
  sensitivity to trastuzumab: increased the sensitivity
[17]; BT474-m1, CPP 12.5 or 50 µM
  growth, CPP alone: suppressed the growth
[18]; HR5, CPP with trastuzumab 20 µg/ml
  sensitivity to trastuzumab: overcome drug insensitivity
[18]; HR5 trastuzumab resistant cells
  growth, CPP: significantly suppress growth
[19]; HR6, CPP with trastuzumab 20 µg/ml
  sensitivity to trastuzumab: overcome drug insensitivity
[19]; HR6 trastuzumab resistant cells
  growth, CPP: significantly suppress growth
